We go through 70 compounds from patent US9416126B2, “Compounds inhibiting leucine-rich repeat kinase enzyme activity” (Merck Sharp & Dohme Corp., priority 2013, dated 2016).

LRRK2(G2019S mutation, GST-LRRK2(amino acids 970-2527)), sequence (Q5S007 970-2527 G2019S): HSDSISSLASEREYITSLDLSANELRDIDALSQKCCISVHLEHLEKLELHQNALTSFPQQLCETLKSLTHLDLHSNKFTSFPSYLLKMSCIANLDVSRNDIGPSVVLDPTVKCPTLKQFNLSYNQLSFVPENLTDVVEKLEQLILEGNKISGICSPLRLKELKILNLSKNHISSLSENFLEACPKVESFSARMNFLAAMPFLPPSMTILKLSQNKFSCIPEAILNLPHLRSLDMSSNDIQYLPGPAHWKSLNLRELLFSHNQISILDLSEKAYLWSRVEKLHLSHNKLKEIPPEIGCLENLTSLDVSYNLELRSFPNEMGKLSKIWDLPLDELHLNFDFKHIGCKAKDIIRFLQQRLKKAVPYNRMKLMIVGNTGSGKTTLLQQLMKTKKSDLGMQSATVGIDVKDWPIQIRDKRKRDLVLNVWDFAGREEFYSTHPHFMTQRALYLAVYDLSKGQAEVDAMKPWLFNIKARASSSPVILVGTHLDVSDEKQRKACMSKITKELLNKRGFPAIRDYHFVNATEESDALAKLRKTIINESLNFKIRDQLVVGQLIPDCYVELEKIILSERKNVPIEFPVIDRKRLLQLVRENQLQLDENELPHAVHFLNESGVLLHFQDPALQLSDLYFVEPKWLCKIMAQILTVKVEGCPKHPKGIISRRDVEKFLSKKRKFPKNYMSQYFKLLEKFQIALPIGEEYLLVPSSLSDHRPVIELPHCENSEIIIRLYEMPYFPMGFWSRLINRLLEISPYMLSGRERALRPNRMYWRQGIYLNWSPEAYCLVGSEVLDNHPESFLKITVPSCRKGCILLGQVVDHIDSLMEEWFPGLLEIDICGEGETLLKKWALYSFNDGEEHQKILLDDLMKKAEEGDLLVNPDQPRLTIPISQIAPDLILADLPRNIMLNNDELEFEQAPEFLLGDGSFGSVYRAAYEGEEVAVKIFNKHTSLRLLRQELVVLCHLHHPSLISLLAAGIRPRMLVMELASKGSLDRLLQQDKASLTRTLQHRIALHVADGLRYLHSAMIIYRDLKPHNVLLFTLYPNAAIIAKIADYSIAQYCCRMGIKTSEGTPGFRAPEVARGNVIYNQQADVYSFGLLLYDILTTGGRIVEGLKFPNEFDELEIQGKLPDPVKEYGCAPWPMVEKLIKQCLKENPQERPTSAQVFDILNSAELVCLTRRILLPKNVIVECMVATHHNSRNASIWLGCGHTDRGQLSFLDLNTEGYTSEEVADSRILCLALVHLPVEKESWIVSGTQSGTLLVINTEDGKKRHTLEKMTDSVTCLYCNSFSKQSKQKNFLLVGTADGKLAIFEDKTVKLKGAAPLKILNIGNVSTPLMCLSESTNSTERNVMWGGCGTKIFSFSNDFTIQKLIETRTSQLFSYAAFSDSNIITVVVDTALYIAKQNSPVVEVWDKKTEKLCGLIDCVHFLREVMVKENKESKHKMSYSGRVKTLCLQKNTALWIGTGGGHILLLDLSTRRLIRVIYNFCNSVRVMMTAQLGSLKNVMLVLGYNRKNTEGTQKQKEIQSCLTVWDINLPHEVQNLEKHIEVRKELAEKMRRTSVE

One assay addresses LRRK2(G2019S mutation, GST-LRRK2(amino acids 970-2527)) (Homo sapiens (Human), UniProt Q5S007, G2019S). As to the kind of experiment: LRRK2 Km ATP LanthaScreen Assay. Type of assay: biochemical. As to conditions: Examples N1-N25. In outline:
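TR-FRET: GST-LRRK2 970-2527 G2019S (2.5 nM solution) preincubated 30 min with compound (98 μM top, 1:2.15 dilutions), then 800 nM fluorescein-LRRKtide and 184 μM ATP solution added for 60 min at room temperature in Tris pH 8.5 buffer. Stopped with EDTA and Tb anti-phospho-LRRKtide antibody; IC50 is a mean of several tests.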
`COCC(=O)N1CCN(c2cc(-c3n[nH]c4cc(F)c(OC(C)C)cc34)ncn2)CC1` [Example N2]: half-maximal inhibition (IC50) was put at 5.6 nM. In other words, the single-digit nanomolar range. The same measure, in the same setting: in the case of `CC(C)Oc1cc2c(-c3cc(N4C5CCC4COC5)ncn3)n[nH]c2cc1F` [Example N11] it was 18.2 nM.

Consider `CC(C)Oc1cc2c(-c3cc(N4[C@H](C)COC[C@@H]4C)ncn3)n[nH]c2cc1F` [Example N25], for which half-maximal inhibition (IC50) was put at 5.4 nM. On the same count and under the same terms, in the case of `CC(C)Oc1cc2c(-c3cc(N4CCn5ncnc5C4)ncn3)n[nH]c2cc1F` [Example N1] it was 7.1 nM; in that of `COCC1CN(c2cc(-c3n[nH]c4cc(F)c(OC(C)C)cc34)ncn2)CCO1` (stereo not shown) [Example N12], 2.9 nM.

The same assay, now with this note: Examples O1-O23.
For the compound `COC[C@H](C)Oc1ccc2[nH]nc(-c3cc(N4CCCC(F)(F)C4)ncn3)c2c1` [Example O4], it took 2.8 nM to reach half-maximal inhibition (IC50).

With `COC[C@H](C)Oc1ccc2[nH]nc(-c3cc(N4CC[C@H](CO)C4)ncn3)c2c1` [Example O6], the IC50 (in general, the concentration that inhibits the measured activity by half) amounted to 6 nM. On the same count and under the same terms, in the case of `COC[C@H](C)Oc1ccc2[nH]nc(-c3cc(N4CCOC[C@H]4C)ncn3)c2c1` [Example O2] it was 20.2 nM; in that of `COC[C@H](C)Oc1ccc2[nH]nc(-c3cc(N4CC[C@@H](CO)C4)ncn3)c2c1` [Example O7], 3.6 nM. Still for that read-out and setting: in the case of `COC[C@H](C)Oc1ccc2[nH]nc(-c3cc(N4C[C@H](O)[C@@H](N(C)C)C4)ncn3)c2c1` [Example O22] it was 6.6 nM.

The assay is the same for the next values; noted with them: Examples P1-P18.
Consider `COc1cnc(-c2ccc3[nH]nc(-c4cc(N5CCOCC5)ncn4)c3c2)cn1` [Example P10], for which half-maximal inhibition (IC50) required 272 nM. The same measure, in the same setting: in the case of `N#Cc1cccc(-c2ccc3[nH]nc(-c4cc(N5CCOCC5)ncn4)c3c2)c1` [Example P7] it was 81.3 nM; in that of `CCN(CC)C(=O)c1ccc(-c2ccc3[nH]nc(-c4cc(N5CCOCC5)ncn4)c3c2)cc1` [Example P8], 608 nM. On the same count and under the same terms, in the case of `O=C(NCCO)c1ccc(-c2ccc3[nH]nc(-c4cc(N5CCOCC5)ncn4)c3c2)cc1` [Example P18] it was 154 nM; in that of `c1nc(-c2n[nH]c3ccc(-c4ccc5nncn5c4)cc23)cc(N2CCOCC2)n1` [Example P12], 56.1 nM.

Staying with this assay, now noted: Examples Q1-Q20.
The compound `C[C@@H]1CN(c2cc(-c3n[nH]c4ccc(-c5cncnc5)cc34)ncn2)C[C@H](C)O1` [Example Q8] gave an IC50 of 30.3 nM. As to `COc1cnc(-c2ccc3[nH]nc(-c4cc(N5C[C@@H](C)O[C@@H](C)C5)ncn4)c3c2)cn1` [Example Q7], the IC50 was found to be 63.4 nM. On the same count and under the same terms, in the case of `C[C@@H]1CN(c2cc(-c3n[nH]c4ccc(-c5ccnc(C#N)c5)cc34)ncn2)C[C@H](C)O1` [Example Q11] it was 172 nM.

Still in this assay, the particulars now being: Km ATP (184 μM ATP solution), G2019S LRRK2, mean IC50.
`COC[C@H](C)Oc1ccc2[nH]nc(-c3cc(N4CCC5(CCN(C)C5=O)CC4)ncn3)c2c1` [Example H15] came in with a concentration for half-maximal inhibition (IC50) of 3.71 nM. This counts as single-digit nanomolar. The same measure, in the same setting: in the case of `COCCOc1ccc2[nH]nc(-c3cc(N4CCN(S(C)(=O)=O)CC4)ncn3)c2c1` [Example G1] it was 64.7 nM. Still for that read-out and setting: in the case of `COC[C@H](C)Oc1ccc2[nH]nc(-c3cc(N4CC[C@H](OC)C4)ncn3)c2c1` [Example H13] it was 5.27 nM. Regarding `COC[C@H](C)Oc1ccc2[nH]nc(-c3cc(N4CC5CCC(C4)O5)ncn3)c2c1` [Example H8], the half-inhibitory concentration (IC50) stood at 9.93 nM. Compared with the last compound, the IC50 is about 1.9-fold higher. The same measure, in the same setting: the figure for `Cn1cc(-c2cc3c(-c4cc(N5CC[C@H](CO)C5)ncn4)n[nH]c3cc2F)cn1` [Example L5] is 37 nM. `CC(C)NC(=O)CN1CCN(c2cc(-c3n[nH]c4ccc(OC(C)C)cc34)ncn2)CC1` [Example K1] yielded an IC50 of 5.1 nM. Same read-out and setting: in the case of `COC1CCCN(c2cc(-c3n[nH]c4ccc(OC(C)C)cc34)ncn2)C1` (stereo not shown) [Example K4] it was 12.7 nM; in that of `[2H]C1([2H])OC([2H])([2H])C([2H])([2H])N(c2cc(-c3n[nH]c4ccc(OC(C)C)cc34)ncn2)C1([2H])[2H]` [Example D11], 7.12 nM; in that of `COCCOc1ccc2[nH]nc(-c3cc(N4CCO[C@@H](C)C4)ncn3)c2c1` [Example G11], 101 nM. Still for that read-out and setting: the figure for `CC(C)Oc1cc2c(-c3cc(N4CCNC(=O)C4)ncn3)n[nH]c2cc1F` [Example D37] is 2.89 nM. On the same count and under the same terms, in the case of `COCCN1CCN(c2cc(-c3n[nH]c4ccc(OC(C)C)cc34)ncn2)CC1=O` [Example D21] it was 5.59 nM; in that of `CC(C)Oc1cc2c(-c3cc(N4CCOCC4)ncn3)n[nH]c2cc1F` [Example D26], 2.39 nM; in that of `CC(C)Oc1ccc2[nH]nc(-c3cc(N4CC[S+]([O-])CC4)ncn3)c2c1` [Example J13], 21 nM.

Consider `Cn1cc(-c2ccc3[nH]nc(-c4cc(N5CCOC(C)(C)C5)ncn4)c3c2)cn1` [Example M20], for which inhibition was half-maximal at 8.9 nM (IC50).

`CC(C)Oc1ccc2[nH]nc(-c3cc(N4CC[C@@H](N)C4)ncn3)c2c1` [Example D43] yielded an IC50 of 8.78 nM. Still for that read-out and setting: the figure for `CC(C)Oc1ccc2[nH]nc(-c3cc(N4CC[C@@H](F)C4)ncn3)c2c1` [Example J25] is 8.7 nM.

For the compound `COCCOc1ccc2[nH]nc(-c3cc(N4CCN(C)CC4)ncn3)c2c1` [Example G4], the IC50 is 67.2 nM. The same measure, in the same setting: in the case of `CCCN1CCN(c2cc(-c3n[nH]c4ccc(OC(C)C)cc34)ncn2)CC1` [Example D14] it was 8.14 nM. `COCCOc1ccc2[nH]nc(-c3cc(N4CCN(C(C)=O)CC4)ncn3)c2c1` [Example G13] showed an IC50 of 128 nM. `Cn1cc(-c2ccc3[nH]nc(-c4cc(N5CCC(F)(F)CC5)ncn4)c3c2)cn1` [Example M21] registered an IC50 of 4.6 nM. This IC50 is about 28-fold lower than that of the compound before. On the same count and under the same terms, the figure for `CC(C)Oc1ccc2[nH]nc(-c3cc(N4CC[C@H](N)C4)ncn3)c2c1` [Example D44] is 6.68 nM; for `CC(C)Oc1cc2c(-c3cc(N4CCN(C5CC5)CC4)ncn3)n[nH]c2cc1F` [Example D45] it is 3.99 nM. Compound `CCN1CCN(c2cc(-c3n[nH]c4ccc(OC(C)C)cc34)ncn2)CC1` [Example K3] registered an IC50 of 6 nM. The same measure, in the same setting: the figure for `COc1ccc2[nH]nc(-c3cc(N4CCN(C)CC4)ncn3)c2c1` [Example E7] is 28.2 nM.

As for `CC(C)Oc1ccc2[nH]nc(-c3cc(N4CCN(c5nnc(C6CC6)o5)CC4)ncn3)c2c1` [Example J21], inhibition was half-maximal at 14 nM (IC50). Against the preceding compound, the IC50 is about 2-fold lower. The compound `CC(C)Oc1ccc2[nH]nc(-c3cc(N4CCN(C5CC5)CC4)ncn3)c2c1` [Example D10] registered an IC50 of 8.28 nM. Same read-out and setting: in the case of `C[C@H]1CN(c2cc(-c3n[nH]c4cc(F)c(-c5cnn(C)c5)cc34)ncn2)CCO1` [Example L12] it was 26.5 nM; in that of `CC(C)Oc1ccc2[nH]nc(-c3cc(N4CC(n5cnnc5)C4)ncn3)c2c1` [Example J23], 20.1 nM; in that of `CC(C)Oc1cc2c(-c3cc(N4CCN(C)C(=O)C4)ncn3)n[nH]c2cc1F` [Example D70], 2.19 nM. Same read-out and setting: the figure for `CC(C)Oc1ccc2[nH]nc(-c3cc(N4CCC(n5cccn5)CC4)ncn3)c2c1` [Example K14] is 15.3 nM; for `CC(C)Oc1ccc2[nH]nc(-c3cc(N4CCN(C(=O)C5CC5)CC4)ncn3)c2c1` [Example D22] it is 4.15 nM.

Regarding `CC(C)Oc1ccc2[nH]nc(-c3cc(N4CCN(CCO)CC4)ncn3)c2c1` [Example J2], half-maximal inhibition (IC50) was put at 7.4 nM. The same measure, in the same setting: the figure for `CC(C)Oc1cc2c(-c3cc(N4CCN(c5cnn(C)c5)CC4)ncn3)n[nH]c2cc1F` [Example D56] is 2.19 nM.

In the case of `Cn1cc(-c2cc3c(-c4cc(N5CCN6C(=O)OCC6C5)ncn4)n[nH]c3cc2F)cn1` (stereo not shown) [Example L18], the IC50 was determined as 64.2 nM. The same measure, in the same setting: in the case of `CC(C)Oc1cc2c(-c3cc(N4C[C@H](N)C[C@@H]4C)ncn3)n[nH]c2cc1F` [Example D60] it was 7.6 nM; in that of `CC(C)Oc1ccc2[nH]nc(-c3cc(N4C[C@H](O)[C@@H](N)[C@@H]4C)ncn3)c2c1` [Example D55], 14.4 nM; in that of `CC(C)Oc1ccc2[nH]nc(-c3cc(N4CCOCC4C)ncn3)c2c1` (stereo not shown) [Example D13], 19.8 nM. On the same count and under the same terms, the figure for `CCOc1ccc2[nH]nc(-c3cc(N4CCN(C(C)=O)CC4)ncn3)c2c1` [Example F11] is 18 nM; for `CCC(=O)N1CCN(c2cc(-c3n[nH]c4ccc(OC(C)C)cc34)ncn2)CC1` [Example D53] it is 4.26 nM. On the same count and under the same terms, in the case of `Cn1cc(-c2ccc3[nH]nc(-c4cc(N5CC6CCC(C5)O6)ncn4)c3c2)cn1` [Example A10] it was 5.18 nM. In the case of `CN(C)[C@@H]1CCN(c2cc(-c3n[nH]c4cc(F)c(-c5cnn(C)c5)cc34)ncn2)C1` [Example L24], the IC50 was found to be 58 nM. Against the preceding compound, the IC50 is about 11-fold higher. Same read-out and setting: in the case of `C[C@@H]1CN(c2cc(-c3n[nH]c4cc(F)c(-c5cnn(C)c5)cc34)ncn2)CCO1` [Example L13] it was 20.5 nM. The same measure, in the same setting: the figure for `CCOc1ccc2[nH]nc(-c3cc(N4CCN(CC)CC4)ncn3)c2c1` [Example F8] is 12.6 nM. The same measure, in the same setting: the figure for `CC(C)Oc1ccc2[nH]nc(-c3cc(N4CCC(C(C)(C)O)CC4)ncn3)c2c1` [Example K18] is 5.4 nM; for `Cn1cc(-c2ccc3[nH]nc(-c4cc(N5CCOC6(CC6)C5)ncn4)c3c2)cn1` [Example A4] it is 2.01 nM; for `CC(C)Oc1ccc2[nH]nc(-c3cc(N4CC[S+]([O-])CC4)ncn3)c2c1` [Example D4] it is 11.5 nM. As for `Cn1cc(-c2cc3c(-c4cc(N5CCC(F)(F)C5)ncn4)n[nH]c3cc2F)cn1` [Example L6], it took 70.9 nM to reach half-maximal inhibition (IC50). Compound `C[C@@H]1CN(c2cc(-c3n[nH]c4ccc(-c5cnn(C)c5)cc34)ncn2)C[C@H](C)O1` [Example A11] registered a half-inhibitory concentration (IC50) of 1.4 nM.

The assay is the same for the next values; noted with them: Table U.
Compound `COc1ccncc1-c1ccc2[nH]nc(-c3cc(N4C[C@@H](C)O[C@@H](C)C4)ncn3)c2c1` [Example U26] had an IC50 of 0.75 nM. Consider `CC(C)N1CCN(c2cc(-c3n[nH]c4ccc(-c5ccoc5)cc34)ncn2)CC1` [Example U22], for which 9.03 nM corresponded to half-maximal inhibition (IC50). This IC50 is about 12-fold higher than that of the compound before. On the same count and under the same terms, the figure for `Cc1ccc(-c2ccc3[nH]nc(-c4cc(N5CCOCC5)ncn4)c3c2)cc1` [Example U15] is 251 nM. On the same count and under the same terms, in the case of `Cc1n[nH]c(C)c1-c1ccc2[nH]nc(-c3cc(N4CCO[C@H](C)C4)ncn3)c2c1` [Example U29] it was 3.2 nM.
